# Reference: patent publication US20250049929A1, “NOVEL TETRAHYDROQUINOLINES AND PROTEOLYSIS TARGETING CHIMERA (PROTACS) COMPRISING THEM AS DEGRADERS OF SMARCA” (Boehringer Ingelheim International GmbH, priority 2021, published 2025)
# How the values were obtained:
# [1] = target: T1, SMARCA2 (Homo sapiens, UniProt P51531); experiment: SMARCA2 degradation analysis by imaging in RKO cells (DC50 A2); assay type: cell-based; details: tables 69, 70, 73, 76-78
# T1 construct: endogenous in cells; host or cells: RKO cells (CRL-2577, ATCC)
# Method: (§1) Determination of SMARCA2 and SMARCA4 Degradation (DC50 A2 and A4 [nM])
# (§2) Protein Degradation Assays for SMARCA2 and SMARCA4
# (§3) For degradation analysis by imaging, 1250 RKO cells (CRL-2577, ATCC) per well were seeded into 60 μL DMEM (Sigma Aldrich) supplemented with 10% FBS (Hyclone) in 384-well flat bottom plates (CellCarrier Ultra, Perkin Elmer) and incubated at 37° C. and 5% CO2 in a humidified atmosphere overnight. Compounds were added the next day using an Access Labcyte Workstation with a Labcyte Echo 550 or 555 acoustic dispenser and incubated with the cells for 4 or 24 h. Cells were fixed by adding 25 μL fixation buffer (7.4% formaldehyde (Sigma Aldrich F8775), 0.2% Triton TX100 (Sigma Aldrich F93443) in PBS) for 15 minutes at room temperature. After aspirating the fixing solution, the cells were washed once with 25 μL PBS and 25 μL of Blocking Buffer (10% Goat Serum in PBS) were added to each well and incubated for 30 minutes. Cells were washed with PBS and incubated with 20 μL mouse anti-Smarca4 (BRG1) antibody (Cell Signaling #52251) or rabbit anti-Smarca2 (BRM) antibody (Sigma Aldrich HPA029981) in blocking solution (PBS with 10% FCS) for ca. 2-4 h at RT. For detection of the nuclei, 25 μL of 5 μg/mL Hoechst 33342 (stock 10 mg/mL in H2O; Invitrogen H1399) were added together with Alexa Fluor 647 goat anti-mouse IgG (Invitrogen A-21235) or Alexa Fluor 488 goat anti-rabbit IgG (Invitrogen A-11034) in blocking solution and incubated for 60 min at RT. The cell layer was washed with 25 μL PBS, the wells were filled with 25 μL PBS and the plates sealed with an adhesive sheet. The mean intensity at 488 or 647 nm in the nucleus was measured using an Opera Phenix Plus High-Content Screening System (Perkin Elmer), values were normalized to the background and DMSO control and DC50 values were calculated and analyzed using a four-parametric logistic model.
# [2] = target: T2, SMARCA4 (Homo sapiens, UniProt P51532); experiment: SMARCA4 degradation analysis by imaging in RKO cells (DC50 A4); assay type: cell-based; details: tables 69, 70, 73, 76-78
# T2 construct: endogenous in cells; host or cells: RKO cells (CRL-2577, ATCC)
# Method: as §1, §2, §3
# T1 sequence (P51531 whole entry): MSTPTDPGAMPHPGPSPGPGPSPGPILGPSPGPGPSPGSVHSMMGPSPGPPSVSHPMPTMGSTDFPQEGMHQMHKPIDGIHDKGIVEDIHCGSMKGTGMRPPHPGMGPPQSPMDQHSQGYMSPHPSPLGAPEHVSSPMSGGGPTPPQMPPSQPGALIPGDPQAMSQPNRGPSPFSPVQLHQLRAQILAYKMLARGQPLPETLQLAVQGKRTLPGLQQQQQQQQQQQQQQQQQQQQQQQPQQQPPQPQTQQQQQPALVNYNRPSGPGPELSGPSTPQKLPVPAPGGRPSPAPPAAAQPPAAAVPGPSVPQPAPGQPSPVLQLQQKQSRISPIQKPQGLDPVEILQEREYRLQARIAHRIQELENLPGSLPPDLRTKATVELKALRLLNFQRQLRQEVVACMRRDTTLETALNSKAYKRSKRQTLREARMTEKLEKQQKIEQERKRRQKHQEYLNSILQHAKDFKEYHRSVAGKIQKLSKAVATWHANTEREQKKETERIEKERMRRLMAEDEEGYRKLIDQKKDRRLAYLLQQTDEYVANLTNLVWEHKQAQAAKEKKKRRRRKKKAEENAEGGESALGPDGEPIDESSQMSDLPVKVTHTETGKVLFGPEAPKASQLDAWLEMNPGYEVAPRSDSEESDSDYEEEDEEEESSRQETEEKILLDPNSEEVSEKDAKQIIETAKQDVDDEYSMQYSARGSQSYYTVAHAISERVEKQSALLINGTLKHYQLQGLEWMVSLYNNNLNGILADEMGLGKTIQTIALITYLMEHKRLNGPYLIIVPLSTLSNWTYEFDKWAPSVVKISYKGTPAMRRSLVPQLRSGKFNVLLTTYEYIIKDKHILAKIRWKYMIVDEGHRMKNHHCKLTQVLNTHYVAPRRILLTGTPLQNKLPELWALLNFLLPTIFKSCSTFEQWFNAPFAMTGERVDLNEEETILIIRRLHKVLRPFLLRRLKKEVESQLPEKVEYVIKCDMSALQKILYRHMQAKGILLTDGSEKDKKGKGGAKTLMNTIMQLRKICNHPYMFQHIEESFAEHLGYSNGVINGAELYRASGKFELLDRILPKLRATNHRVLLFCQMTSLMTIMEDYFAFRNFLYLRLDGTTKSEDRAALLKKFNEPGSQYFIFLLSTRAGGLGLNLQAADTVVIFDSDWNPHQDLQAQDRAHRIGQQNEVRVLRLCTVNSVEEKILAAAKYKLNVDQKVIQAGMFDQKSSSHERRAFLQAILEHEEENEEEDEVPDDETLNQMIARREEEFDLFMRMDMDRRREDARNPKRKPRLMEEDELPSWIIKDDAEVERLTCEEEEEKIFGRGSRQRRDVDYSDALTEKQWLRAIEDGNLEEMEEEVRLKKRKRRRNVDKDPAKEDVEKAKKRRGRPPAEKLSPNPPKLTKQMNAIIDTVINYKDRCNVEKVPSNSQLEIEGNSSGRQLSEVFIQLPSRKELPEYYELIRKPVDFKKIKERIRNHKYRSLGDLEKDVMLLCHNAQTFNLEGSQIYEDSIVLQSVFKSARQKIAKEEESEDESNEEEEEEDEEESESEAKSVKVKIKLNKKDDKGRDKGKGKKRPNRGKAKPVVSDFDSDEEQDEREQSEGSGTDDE
# T2 sequence (P51532 whole entry): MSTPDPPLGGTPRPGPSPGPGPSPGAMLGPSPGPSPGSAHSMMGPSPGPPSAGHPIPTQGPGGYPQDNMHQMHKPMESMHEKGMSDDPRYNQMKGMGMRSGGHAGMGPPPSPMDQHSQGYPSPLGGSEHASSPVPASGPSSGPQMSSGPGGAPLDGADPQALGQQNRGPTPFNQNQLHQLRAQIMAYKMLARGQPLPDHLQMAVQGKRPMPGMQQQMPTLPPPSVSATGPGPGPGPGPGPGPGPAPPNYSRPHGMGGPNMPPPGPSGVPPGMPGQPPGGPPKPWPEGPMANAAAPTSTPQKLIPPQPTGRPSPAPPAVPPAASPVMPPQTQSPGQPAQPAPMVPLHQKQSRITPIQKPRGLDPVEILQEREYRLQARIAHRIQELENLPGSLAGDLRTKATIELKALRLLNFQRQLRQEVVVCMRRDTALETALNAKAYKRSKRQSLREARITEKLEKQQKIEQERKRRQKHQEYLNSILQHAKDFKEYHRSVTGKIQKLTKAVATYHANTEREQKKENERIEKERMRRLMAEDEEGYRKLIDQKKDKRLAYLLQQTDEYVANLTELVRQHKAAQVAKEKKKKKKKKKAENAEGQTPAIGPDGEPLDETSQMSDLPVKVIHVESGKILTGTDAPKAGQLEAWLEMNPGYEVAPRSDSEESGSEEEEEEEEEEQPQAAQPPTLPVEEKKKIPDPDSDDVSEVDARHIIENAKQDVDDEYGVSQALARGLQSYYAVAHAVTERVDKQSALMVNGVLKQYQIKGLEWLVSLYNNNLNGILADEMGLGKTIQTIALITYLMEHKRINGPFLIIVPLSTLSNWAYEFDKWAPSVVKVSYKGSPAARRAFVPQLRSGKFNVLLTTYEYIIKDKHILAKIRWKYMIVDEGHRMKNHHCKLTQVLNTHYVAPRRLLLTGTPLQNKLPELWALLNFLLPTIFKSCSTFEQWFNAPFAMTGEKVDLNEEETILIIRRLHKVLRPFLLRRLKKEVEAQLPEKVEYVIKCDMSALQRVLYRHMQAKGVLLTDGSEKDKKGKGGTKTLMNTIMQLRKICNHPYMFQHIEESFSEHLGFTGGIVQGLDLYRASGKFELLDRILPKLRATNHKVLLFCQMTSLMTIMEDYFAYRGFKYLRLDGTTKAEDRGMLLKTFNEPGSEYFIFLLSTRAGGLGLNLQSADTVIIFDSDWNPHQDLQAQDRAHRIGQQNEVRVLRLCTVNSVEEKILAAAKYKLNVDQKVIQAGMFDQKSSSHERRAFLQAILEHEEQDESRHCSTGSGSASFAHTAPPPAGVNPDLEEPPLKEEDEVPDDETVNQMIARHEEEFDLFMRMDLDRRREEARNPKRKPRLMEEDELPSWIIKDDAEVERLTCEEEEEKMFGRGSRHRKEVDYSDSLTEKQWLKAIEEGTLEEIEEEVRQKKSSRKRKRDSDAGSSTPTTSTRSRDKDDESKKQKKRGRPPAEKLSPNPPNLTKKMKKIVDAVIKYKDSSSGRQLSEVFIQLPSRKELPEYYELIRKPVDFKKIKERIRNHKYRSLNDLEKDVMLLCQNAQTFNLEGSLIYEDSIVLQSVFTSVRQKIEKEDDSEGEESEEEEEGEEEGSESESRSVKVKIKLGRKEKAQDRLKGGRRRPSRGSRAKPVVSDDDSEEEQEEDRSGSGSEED
DC50 [1] [nM],DC50 [2] [nM],SMILES
3,6,Cc1ncsc1-c1ccc([C@H](CCCN2CCC(c3ccc4c(c3)n(C3CCCC3)c3nc(=O)c5c(N)cccc5n43)CC2)NC(=O)[C@@H]2C[C@@H](O)CN2C(=O)[C@@H](NC(=O)C2(N3CCCC3)CC2)C(C)(C)C)cc1 [Compound 42bi]
0.7,11,Cc1ncsc1-c1ccc([C@H](CCCCCN2CCC(c3ccc4c(c3)n(C3CCCC3)c3nc(=O)c5c(Br)cccc5n43)CC2)NC(=O)[C@@H]2C[C@@H](O)CN2C(=O)[C@@H](NC(=O)C2(F)CC2)C(C)(C)C2CC2)cc1 [Compound 42c]
0.7,7,Cc1ncsc1-c1ccc([C@H](CC[C@@H](C)CCN2CCC(c3ccc4c(c3)n(C3CCCC3)c3nc(=O)c5c(Br)cccc5n43)CC2)NC(=O)[C@@H]2C[C@@H](O)CN2C(=O)[C@@H](NC(=O)C2(F)CC2)C(C)(C)C)cc1 [Compound 42d]
2,46,Cc1ncsc1-c1ccc([C@H](CCCCCN2CCC(c3ccc4c(c3)n([C@H]3CC[C@@H](O)C3)c3nc(=O)c5c(Br)cccc5n43)CC2)NC(=O)[C@@H]2C[C@@H](O)CN2C(=O)[C@@H](NC(=O)C2(F)CC2)C(C)(C)C)cc1 [Compound 42f]
3,40,Cc1ncsc1-c1ccc([C@H](CCC(C)(C)CCN2CCC(c3ccc4c(c3)n(C3CCCC3)c3nc(=O)c5c(Br)cccc5n43)CC2)NC(=O)[C@@H]2C[C@@H](O)CN2C(=O)[C@@H](NC(=O)C2(F)CC2)C(C)(C)C)cc1 [Compound 42g]
9,24,Cc1ncsc1-c1ccc([C@H](COC(C)(C)CN2CCCN(c3ccc4c(c3)n(C3CCCC3)c3nc(=O)c5c(Br)cccc5n43)CC2)NC(=O)[C@@H]2C[C@@H](O)CN2C(=O)[C@@H](NC(=O)C2(F)CC2)C(C)(C)C)cc1 [Compound 42i]
4,> 833,Cc1ncsc1-c1ccc([C@H](CO[C@H](C)CN2CCC(c3ccc4c(c3)n(C3CCCC3)c3nc(=O)c5c(Br)cccc5n43)CC2)NC(=O)[C@@H]2C[C@@H](O)CN2C(=O)[C@@H](NC(=O)C2(F)CC2)C(C)(C)C)cc1 [Compound 42m]
3,800,Cc1ncsc1-c1ccc([C@H](COC(C)(C)CN2CCC(c3ccc4c(c3)n(C3CCCC3)c3nc(=O)c5c(Br)cccc5n43)CC2)NC(=O)[C@@H]2C[C@@H](O)CN2C(=O)[C@@H](NC(=O)C2(F)CC2)C2(C)CCCC2)cc1 [Compound 42n]
5,90,Cc1ncsc1-c1ccc([C@H](COCCN2CCC(c3ccc4c(c3)n(C3CCCC3)c3nc(=O)c5c(Br)cccc5n43)CC2)NC(=O)[C@@H]2C[C@@H](O)CN2C(=O)[C@@H](NC(=O)C2(F)CC2)C(C)(C)C)cc1 [Compound 42o]
0.4,1,Cc1ncsc1-c1ccc([C@H](CCCN2CCC(c3ccc4c(c3)n(C3CCCC3)c3nc(=O)c5c(Br)cccc5n43)CC2)NC(=O)[C@@H]2C[C@@H](O)CN2C(=O)[C@@H](NC(=O)C2(F)CC2)C(C)(C)C)cc1 [Compound 42q]
3,67,Cc1ncsc1-c1ccc([C@H](COCCN2CCC(c3cc4c(cc3OC[C@@H]3CCCO3)n3c5cccc(Br)c5c(=O)nc3n4C3CCCC3)CC2)NC(=O)[C@@H]2C[C@@H](O)CN2C(=O)[C@@H](NC(=O)C2(F)CC2)C(C)(C)C)cc1 [Compound 42t]
11,36,CCOC(=O)c1ncsc1-c1ccc([C@H](CCCN2CCC(c3ccc4c(c3)n(C3CCCC3)c3nc(=O)c5c(Br)cccc5n43)CC2)NC(=O)[C@@H]2C[C@@H](O)CN2C(=O)[C@@H](NC(=O)C2(F)CC2)C(C)(C)C)cc1 [Compound 42w]
0.3,2,Cc1ncsc1-c1ccc([C@H](CCCN2CCC(c3ccc4c(c3)n(C3CCCC3)c3nc(=O)c5c(N)cccc5n43)CC2)NC(=O)[C@@H]2C[C@@H](O)CN2C(=O)[C@@H](NC(=O)C2(F)CC2)C(C)(C)C)cc1 [Compound 42x]

# Second part, the molecule before the results:
SMILES,DC50 [1] [nM],DC50 [2] [nM]
Cc1ncsc1-c1ccc([C@H](COCCN2CCC(c3ccc4c(c3)n(C3CCCC3)c3nc(=O)c5c(Br)cccc5n43)CC2)NC(=O)[C@@H]2C[C@@H](O)CN2C(=O)[C@@H](NC(=O)C2(C3CC3)CC2)C(C)(C)C)cc1 [Compound 42bd],11,64
Cc1ncsc1-c1ccc([C@H](COCCN2CCC(c3ccc4c(c3)n(C3CCCC3)c3nc(=O)c5c(Br)cccc5n43)CC2)NC(=O)[C@@H]2C[C@@H](O)CN2C(=O)[C@@H](NC(=O)C2(C#N)CC2)C(C)(C)C)cc1 [Compound 42be],12,67
COC(=O)C1(C(=O)N[C@H](C(=O)N2C[C@H](O)C[C@H]2C(=O)N[C@@H](COCCN2CCC(c3ccc4c(c3)n(C3CCCC3)c3nc(=O)c5c(Br)cccc5n43)CC2)c2ccc(-c3scnc3C)cc2)C(C)(C)C)CC1 [Compound 42bf],8,87
Cc1ncsc1-c1ccc([C@H](COCCN2CCC(c3ccc4c(c3)n(C3CCCC3)c3nc(=O)c5c(Br)cccc5n43)CC2)NC(=O)[C@@H]2C[C@@H](O)CN2C(=O)[C@@H](NC(=O)C23CCCCC2C3)C(C)(C)C)cc1 (stereo partly shown) [Compound 42bh],6,153
CC(=O)O[C@@H]1C[C@@H](C(=O)N[C@@H](CCCCCN2CCC(c3ccc4c(c3)n(C3CCCC3)c3nc(=O)c5c(Br)cccc5n43)CC2)c2ccc(-c3scnc3C)cc2)N(C(=O)[C@@H](NC(=O)C2(F)CC2)C(C)(C)C)C1 [Compound 42bj],8,83
CCCCC(=O)O[C@@H]1C[C@@H](C(=O)N[C@@H](CC[C@H](C)CCN2CCC(c3ccc4c(c3)n(C3CCCC3)c3nc(=O)c5c(Br)cccc5n43)CC2)c2ccc(-c3scnc3C)cc2)N(C(=O)[C@@H](NC(=O)C2(F)CC2)C(C)(C)C)C1 [Compound 42bk],3,60
Cc1ncsc1-c1ccc([C@H](CCC(O)CCN2CCC(c3ccc4c(c3)n(C3CCCC3)c3nc(=O)c5c(Br)cccc5n43)CC2)NC(=O)[C@@H]2C[C@@H](O)CN2C(=O)[C@@H](NC(=O)C2(F)CC2)C(C)(C)C)cc1 (stereo partly shown) [Compound 42e],4.1,80
Cc1ncsc1-c1ccc([C@H](CCCCCN2CCC(c3ccc4c(c3)n(C3CCCC3)c3nc(=O)c5c(Br)cccc5n43)CC2)NC(=O)[C@@H]2C[C@@H](O)CN2C(=O)[C@@H](NC(=O)C2(F)CC2)C(C)(C)C)cc1 [Compound 42h],0.3,4
CCC(C)(C)[C@H](NC(=O)C1(F)CC1)C(=O)N1C[C@H](O)C[C@H]1C(=O)N[C@@H](COC(C)(C)CN1CCN(c2ccc3c(c2)n(C2CCCC2)c2nc(=O)c4c(Br)cccc4n32)CC1)c1ccc(-c2scnc2C)cc1 [Compound 42j],4,> 833
Cc1ncsc1-c1ccc([C@H](COC(C)(C)CN2CCC(c3ccc4c(c3)n(C3CCCC3)c3nc(=O)c5c(Br)cccc5n43)CC2)NC(=O)[C@@H]2C[C@@H](O)CN2C(=O)[C@@H](NC(=O)C2(F)CC2)C(C)(C)C)cc1 [Compound 42l],3,> 833
Cc1ncsc1-c1ccc([C@H](CO[C@H](C)CN2CCC(c3ccc4c(c3)n(C3C[C@H](C)[C@@H](C)C3)c3nc(=O)c5c(Br)cccc5n43)CC2)NC(=O)[C@@H]2C[C@@H](O)CN2C(=O)[C@@H](NC(=O)C2(F)CC2)C(C)(C)C)cc1 [Compound 42p],13,> 833
Cc1ncsc1-c1ccc([C@H](CO[C@H](C)CN2CCC(c3ccc4c(c3)n(C3CCCC3)c3nc(=O)c5c(Cl)cccc5n43)CC2)NC(=O)[C@@H]2C[C@@H](O)CN2C(=O)[C@@H](NC(=O)C2(F)CC2)C23CC4CC(CC(C4)C2)C3)cc1 [Compound 42r],2,27
Cc1ncsc1-c1ccc([C@H](COCCCCCN2CCC(c3ccc4c(c3)n(C3CCCC3)c3nc(=O)c5c(Br)cccc5n43)CC2)NC(=O)[C@@H]2C[C@@H](O)CN2C(=O)[C@@H](NC(=O)C2(F)CC2)C(C)(C)C)cc1 [Compound 42s],0.7,8
Cc1ncsc1-c1ccc([C@H](C[C@@H](C)CN2CCC(c3ccc4c(c3)n(C3CCCC3)c3nc(=O)c5c(Br)cccc5n43)CC2)NC(=O)[C@@H]2C[C@@H](O)CN2C(=O)[C@@H](NC(=O)C2(F)CC2)C(C)(C)C)cc1 [Compound 42u],0.3,0.7
Cc1ncsc1-c1ccc([C@H](CO[C@@H](CN2CCC(c3ccc4c(c3)n(C3CCCC3)c3nc(=O)c5c(Br)cccc5n43)CC2)C2CC2)NC(=O)[C@@H]2C[C@@H](O)CN2C(=O)[C@@H](NC(=O)C2(F)CC2)C(C)(C)C)cc1 [Compound 42v],11,> 833
Cc1ncsc1-c1ccc([C@H](CO[C@H](C)CN2CCC(c3ccc4c(c3)n(C3CCCC3)c3nc(=O)c5c(Br)cccc5n43)CC2)NC(=O)[C@@H]2C[C@@H](O)CN2C(=O)[C@@H](NC(=O)C2(N(C)C)CC2)C(C)(C)C)cc1 [Compound 42y],6,101
